Data: the supplement of paper PMC10307832

Legend:
[1] = compound: COc1nc(N)nc2c1ncn2[C@@H]1O[C@H](CO)[C@@H](O)[C@@H]1O [Nelarabine]; assay: relative viability (nuclei count vs DMSO), 5 days (fraction); higher = more cells survive
Method in brief: (§1)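 Following overnight incubation at 37 °C, lung cancer cell lines in 1536-well plates were pinned with five library-drug doses (not always all listed) in √10 steps on vehicle-anchored plates. The cells then spent 5 days without medium change before a combined fix, permeabilisation and Hoechst stain, 4× imaging and MetaXpress nuclear counts. Viability is the treated-to-vehicle ratio of nuclei, taken as the median across plates. Only plates with control CV below 25% and at least one doubling passed.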

[2] = compound: C=CCn1c(=O)c2cnc(Nc3ccc(N4CCN(C)CC4)cc3)nc2n1-c1cccc(C(C)(C)O)n1 [Adavosertib]; assay: as above
Method in brief: as §1

With HCC-44 the relative viability ([1]; 0.01 µM) was 1, the relative viability ([1]; 0.03162 µM) was 0.949 and the relative viability ([1]; 0.1 µM) was 0.997. The relative viability ([1]; 0.3162 µM) was 0.947, the relative viability ([1]; 1 µM) was 0.867 and the relative viability ([2]; 0.01 µM) was 0.927. It also gave a relative viability ([2]; 0.03162 µM) of 0.987, a relative viability ([2]; 0.1 µM) of 0.971 and a relative viability ([2]; 0.3162 µM) of 0.984.
For HOP-62, the relative viability ([1]; 0.01 µM) was 1.02, the relative viability ([1]; 0.03162 µM) was 1.02 and the relative viability ([1]; 0.1 µM) was 1.06. The relative viability ([1]; 0.3162 µM) was 1.01, the relative viability ([1]; 1 µM) was 1.01 and the relative viability ([2]; 0.01 µM) was 1.03. For the same cell line, the relative viability ([2]; 0.03162 µM) was 1.1, the relative viability ([2]; 0.1 µM) was 1.08 and the relative viability ([2]; 0.3162 µM) was 1.18.
Cell Line NCI-H2126 has a relative viability ([1]; 0.01 µM) of 1.08, a relative viability ([1]; 0.03162 µM) of 0.952 and a relative viability ([1]; 0.1 µM) of 0.961. For the same cell line, the relative viability ([1]; 0.3162 µM) was 1.03, the relative viability ([1]; 1 µM) was 0.988 and the relative viability ([2]; 0.01 µM) was 1.01. For the same cell line, the relative viability ([2]; 0.03162 µM) was 1.04, the relative viability ([2]; 0.1 µM) was 0.969 and the relative viability ([2]; 0.3162 µM) was 1.07.
NCI-H1355 showed a relative viability ([1]; 0.01 µM) of 1.18, a relative viability ([1]; 0.03162 µM) of 0.875 and a relative viability ([1]; 0.1 µM) of 1.03. It also gave a relative viability ([1]; 0.3162 µM) of 1.04, a relative viability ([1]; 1 µM) of 1.02 and a relative viability ([2]; 0.01 µM) of 0.991. The relative viability ([2]; 0.03162 µM) was 0.99, the relative viability ([2]; 0.1 µM) was 0.948 and the relative viability ([2]; 0.3162 µM) was 0.986.
With NCI-H1944 the relative viability ([1]; 0.01 µM) was 1.15, the relative viability ([1]; 0.03162 µM) was 0.984 and the relative viability ([1]; 0.1 µM) was 1. For the same cell line, the relative viability ([1]; 0.3162 µM) was 0.987, the relative viability ([1]; 1 µM) was 0.869 and the relative viability ([2]; 0.01 µM) was 0.953. The relative viability ([2]; 0.03162 µM) was 0.926, the relative viability ([2]; 0.1 µM) was 0.959 and the relative viability ([2]; 0.3162 µM) was 0.807.
